From publication PMC10041529 (Journal of Medicinal Chemistry, 2023)

Experiments:
[1] = test system: calcineurin/NFAT pathway with overexpressed GSK3β; experiment: NFAT translocation assay (EGFP-NFATc1 imaging) in HEK293T cells; format: cell-based, human; conditions: pretreatment 3 h, ionomycin 1 h
From the text: One of the important cellular targets of DYRK1A and GSK3β is the NFAT (Nuclear factor of activated T-cells) transcription factor, which plays a major role in regulating the cell cycle.[52] The calcineurin/NFAT signaling controlled by DYRK1A and GSK3β activity is an important target for neurodegenerative processes and β-cell proliferation. Both kinases inactivate NFAT’s transcription factor by phosphorylation of its nuclear pool, which leads to cytosolic export. […] In unstimulated cells, EGFP-NFAT stayed predominantly in the cytosol, and only after stimulation with ionomycin, the nuclear translocation and accumulation of EGFP-NFAT were observed (Figure 4). Overexpression of any of the kinases blocked the nuclear accumulation of EGFP-NFAT upon cell stimulation, proving the negative regulation of the calcineurin/NFAT pathway by DYRK1A or GSK3β.
EGFP-NFATc1 (green) was cotransfected with either a mock vector, DYRK1A (red), or GSK3β (red) into HEK293T cells.
HEK293T cells were grown on a μ-Slide 8 well (IBIDI) to 50%–70% confluency. The plasmids expressing the desired proteins, mCherry-DYRK1A or mCherry-GSK3β and eGFP-NFATc1, were transiently cotransfected for 24 h with PEI Prime (Sigma-Aldrich). […] Images were collected with a Zeiss Axio Observer 3 fluorescence microscope and analyzed in ZEN Blue edition software.

[2] = target: T1, DYRK1A kinase domain (126–490) (Homo sapiens, UniProt Q13627); experiment: Microscale thermophoresis (MST) direct binding assay; conditions: CK2α vs DYRK1A
T1 construct: The recombinant kinase domains of DYRK1A (126–490) and GSK3β (26–383), both with C-terminal His-tag extension; made in house; host or cells: E. coli LOBSTR

DYRK1A = test system: DYRK1A; parameters: method as in PMID 29191878; conditions: cell lysates; Table S2 of ref 38; read-out: EC50 (Kinobeads); cited from earlier work
HIPK3 = test system: HIPK3; parameters: method as in PMID 21870818; conditions: at 500 nM; cited from earlier work
DYRK2 = test system: DYRK2; parameters: method as in PMID 21870818; conditions: at 500 nM; cited from earlier work
CK2α = test system: CK2α; parameters: method as in PMID 21870818; conditions: at 500 nM; cited from earlier work
CLK3 = test system: CLK3; parameters: method as in PMID 21870818; conditions: at 500 nM; cited from earlier work
GSK3β = test system: GSK3β; parameters: method as in PMID 21870818; conditions: at 500 nM; cited from earlier work
[3] = target: T2, DYRK1A-mediated phosphorylation of Cyclin D1 (Homo sapiens, UniProt Q13627); experiment: Cyclin D1 phosphorylation profile (Western Blot) in transfected HEK293T cells; format: cell-based; conditions: HA-Cyclin D1 + FLAG-DYRK1A, 10 μM, 3 h
T2 construct: expressed in transfected cells; host or cells: HEK293T (pcDNA3.1, transient)

[4] = test system: calcineurin/NFAT pathway with overexpressed DYRK1A; experiment: NFAT translocation assay (EGFP-NFATc1 imaging) in HEK293T cells; format: cell-based, human; conditions: 5 μM pretreatment 3 h, ionomycin 1 h
[5] = target: T3, GSK3β-mediated phosphorylation of Cyclin D1 (Homo sapiens, UniProt P49841); experiment: Cyclin D1 phosphorylation profile (Western Blot) in transfected HEK293T cells; format: cell-based; conditions: HA-Cyclin D1 + FLAG-GSK3β, 10 μM, 3 h
T3 construct: we used only GSK3β (26–383) kinase domain constructs in our cellular studies; expressed in transfected cells; host or cells: HEK293T (pcDNA3.1, transient)
T3 sequence (P49841 26-383): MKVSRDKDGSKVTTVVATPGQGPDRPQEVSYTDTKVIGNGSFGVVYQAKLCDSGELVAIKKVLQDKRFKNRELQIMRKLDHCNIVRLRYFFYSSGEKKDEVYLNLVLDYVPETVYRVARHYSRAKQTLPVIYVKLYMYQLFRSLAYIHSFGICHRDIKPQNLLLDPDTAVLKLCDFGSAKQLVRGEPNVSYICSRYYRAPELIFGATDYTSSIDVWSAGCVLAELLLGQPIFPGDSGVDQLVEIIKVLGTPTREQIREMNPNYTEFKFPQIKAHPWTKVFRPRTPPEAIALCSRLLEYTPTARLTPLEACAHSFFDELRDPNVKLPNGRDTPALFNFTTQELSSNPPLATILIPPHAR

| Structure (SMILES) | nuclear translocation of EGFP-NFAT despite overexpressed GSK3β [1] | difference in binding between CK2α and DYRK1A [2] | EC50 (DYRK1A) | inhibition of HIPK3 (HIPK3) | inhibition of DYRK2 (DYRK2) | inhibition of CK2α (CK2α) | inhibition of CLK3 (CLK3) | inhibition of GSK3β (GSK3β) | effect on DYRK1A-mediated Cyclin D1 phosphorylation [3] | nuclear translocation of EGFP-NFAT despite overexpressed DYRK1A [4] | effect on GSK3β-mediated Cyclin D1 phosphorylation [5] |
| --- | --- | --- | --- | --- | --- | --- | --- | --- | --- | --- | --- |
| O=C(O)c1ccc2c(c1)nc(Nc1cccc(Cl)c1)c1ccncc12 [CX-4945, 5-(3-Chlorophenylamino)benzo[c][2,6]naphthyridine-8-carboxylic Acid] | reversed the effect of GSK3β-controlled NFAT cellular localization | 5 fold | […] | more than 90% | more than 95% | more than 90% | more than 90% | 55% | complete inhibition | restore the calcineurin/NFAT pathway |  |
| COc1ccc2c(c1)[nH]c1c(C)nccc12 [harmine] |  |  |  |  |  |  |  |  | fully abolished | restore the calcineurin/NFAT pathway |  |
| O=C1Cc2c([nH]c3ccc(Br)cc23)-c2ncccc2N1 [1-azakenpaullone] | reversed the effect of GSK3β-controlled NFAT cellular localization |  |  |  |  |  |  |  |  |  | same effect |
